Test results published in PMC8689681 (The Journal of Experimental Medicine, 2021).

Target: ADAM17 (Homo sapiens, UniProt P78536)
Experiment: fluorogenic peptide
Type: biochemical

Sequence of ADAM17 (P78536 215-474 limits assumed): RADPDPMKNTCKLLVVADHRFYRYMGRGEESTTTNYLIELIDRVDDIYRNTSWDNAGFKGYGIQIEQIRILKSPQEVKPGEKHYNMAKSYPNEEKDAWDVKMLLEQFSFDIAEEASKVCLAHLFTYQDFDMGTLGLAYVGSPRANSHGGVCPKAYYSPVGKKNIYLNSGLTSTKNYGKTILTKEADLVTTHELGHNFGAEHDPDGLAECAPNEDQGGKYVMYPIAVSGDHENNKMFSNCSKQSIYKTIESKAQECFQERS

IC50: 128 ± 0.9 nM
SMILES: CC(C)C[C@H](CC(=O)NO)C(=O)N[C@@H](Cc1ccc2ccccc2c1)C(=O)N[C@@H](C)C(=O)NCCN [TAPI-1]
